The results in this text go back to ChEMBL document CHEMBL3351221, “Synthetic derivatives of aromatic abietane diterpenoids and their biological activities” (Eur J Med Chem, 2014).

Molecules are shown by their SMILES. ≈ marks a conversion by molar mass, not a printed value.

The test system of one assay is AGS. The assay is described as follows: Cytotoxicity against human AGS cells. Format: cell-based.
For a further assay, the system named is MRC5. Description: Cytotoxicity against human MRC5 cells. Format: cell-based.
Assay [1] has as its system Mus musculus. The assay is described as follows: Gastroprotective activity in mouse assessed as reduction in HCl/EtOH-induced gastric lesions at 100 mg/kg. Format: functional. The settings on record: Stomach.
Assay [2] can be described thus: Cytotoxicity against human Hey-1B cells. Format: functional, cell-based.
Assay [3] is described as follows: Cytotoxicity against human HL60 cells. The conditions noted are these: HL-60. Format: functional, cell-based.
In assay [4] the test system is Mus musculus. The assay is described as follows: Gastroprotective activity in mouse assessed as reduction in HCl/EtOH-induced gastric lesions at 20 mg/kg. Type of assay: functional. The conditions noted are these: Stomach.
For the next assay, the system named is SMMC-7721. Description: Cytotoxicity against human SMMC7721 cells. Type of assay: functional, cell-based.
In another assay the test system is Escherichia coli. The assay is described as follows: Antimicrobial activity against Escherichia coli. Type of assay: functional.
A further assay deals with Staphylococcus aureus. Description: Antimicrobial activity against Staphylococcus aureus. Type of assay: functional.
Assay [5] in a line: Cytotoxicity against human PC3 cells. Format: functional, cell-based. The conditions noted are these: PC-3.
A further assay concerns MCF7. The assay is described as follows: Cytotoxicity against human MCF7 cells. Type of assay: functional, cell-based.
The next assay has as its system C6. The assay is described as follows: Cytotoxicity against rat C6 cells. Type of assay: functional, cell-based.
Another assay deals with A549. Description: Cytotoxicity against human A549 cells. Type of assay: functional, cell-based.

The term IC50 denotes the concentration at which inhibition is half-maximal. The inhibition in vivo is the change of the read-out against control, counted positive when it falls. With `CC(C)c1ccc2c(c1)CC[C@H]1[C@](C)(C(=O)Nc3cccc([N+](=O)[O-])c3)CCC[C@]21C`, the IC50 in the assay on AGS and in the assay with MRC5 was greater than 1000 µM each time. In addition, the inhibition in vivo at 100 mg/kg in the assay with Mus musculus [1] is 67%.
`COc1ccc(/C=N/c2cc3c(cc2C(C)C)CC[C@H]2[C@](C)(CNC(C)=O)CCC[C@]32C)cc1` yielded an IC50 in [2] of 15 µg/mL (≈ 32.6 µM).
Regarding `COC(=O)[C@H](Cc1ccccc1)NC(=O)[C@]1(C)CCC[C@]2(C)c3ccc(C(C)C)cc3CC[C@@H]12`, it took 2.3 µM to reach half-maximal inhibition in assay [3] (IC50).
For `CC(=O)NC[C@]1(C)CCC[C@]2(C)c3cc(/N=C/c4cccc(O)c4)c(C(C)C)cc3CC[C@@H]12`, it took 15 µg/mL (≈ 33.6 µM) to reach half-maximal inhibition in [2] (IC50).
As for `CC(C)c1ccc2c(c1)CC[C@H]1C(C)(C)CCC[C@]21C`, the inhibition in vivo at 20 mg/kg in the assay with Mus musculus [4] amounted to 69%.
Consider `CC(C)c1cc2c(cc1OC(=O)c1cc([N+](=O)[O-])cc([N+](=O)[O-])c1)[C@@]1(C)CCCC(C)(C)[C@@H]1CC2`, for which the IC50 with AGS is 29 µM; with MRC5, greater than 1000 µM.
Take `CC(C)c1ccc2c(c1)CC[C@H]1[C@](C)(NC(=O)Nc3cc(F)cc(F)c3)CCC[C@]21C`: the midpoint of inhibition with SMMC-7721, the IC50, lay at 8.8 µM.
As to `CC(C)c1cc2c(cc1OC(=O)CCCc1c[nH]c3ccccc13)[C@@]1(C)CCCC(C)(C)[C@@H]1CC2`, the inhibition in vivo at 20 mg/kg in the assay with Mus musculus [4] was 50%. This compound yielded an IC50 with MRC5 greater than 1000 µM.
With `CC(C)c1cc2c(cc1O)[C@@]1(C)CCCC(C)(C)[C@@H]1CC2` [FERRUGINOL], the IC50 in the assay with AGS came to 18 µM; in the assay with MRC5, 19 µM.
By MIC is commonly meant the smallest concentration in the dilution series that meets the test's criterion for growth inhibition. The low end stands for greater potency, the high end for weaker potency. As for `CC(C)c1ccc2c(c1)CC[C@H]1[C@](C)(CNCc3ccccc3)CCC[C@]21C.Cl`, the MIC against Escherichia coli stood at 250 µg/mL; in the assay with Staphylococcus aureus it was 7.81 µg/mL.
In the case of `CCCCCCCCCCCCCCCC(=O)Oc1cc2c(cc1C(C)C)CC[C@H]1C(C)(C)CCC[C@]21C`, the inhibition in vivo at 20 mg/kg with Mus musculus [4] stood at 50%. Further, the IC50 in the assay on MRC5 is greater than 1000 µM.
On to `CC(=O)NC[C@]1(C)CCC[C@]2(C)c3cc(/N=C/c4cc(Br)cc(Br)c4O)c(C(C)C)cc3CC[C@@H]12`, for which the IC50 in [2] is 15 µg/mL (≈ 24.8 µM).
Consider `CC(C)c1cc2c(cc1[N+](=O)[O-])[C@@]1(C)CCC[C@@](C)(CNC(=O)c3ccc([N+](=O)[O-])cc3)[C@@H]1CC2`, for which the IC50 in assay [2] turned out to be 11.3 µg/mL (≈ 23.6 µM); in [5], 5.7 µg/mL (≈ 11.9 µM).
As to `Cc1ccc(NC(=O)[C@]2(C)CCC[C@]3(C)c4ccc(C(C)C)cc4CC[C@@H]23)cc1`, the IC50 in the assay with AGS and in the assay with MRC5 was greater than 1000 µM in each case. Moreover, the inhibition in vivo at 100 mg/kg in the assay on Mus musculus [1] worked out at 67%.
Turning to `CC(C)c1cc2c(cc1OC(=O)Cc1c[nH]c3ccccc13)[C@@]1(C)CCCC(C)(C)[C@@H]1CC2`, the results for the IC50 with AGS and in the assay with MRC5 were 12 µM and greater than 1000 µM, respectively. The inhibition in vivo at 20 mg/kg in the assay on Mus musculus [4] was 50%.
For `C=CC(=O)Oc1cc2c(cc1C(C)C)CC[C@H]1C(C)(C)CCC[C@]21C`, in that order: 18 µM, 19 µM and 67%.
As to `COc1ccc(/C=N/C[C@]2(C)CCC[C@]3(C)c4ccc(C(C)C)cc4CC[C@@H]23)c(O)c1`, the IC50 with MCF7 was found to be 10.7 µM; in the assay with SMMC-7721, 6.65 µM; in the assay on C6 it was 0.81 µM; in the assay with A549 it was 0.75 µM.
Take `CC(C)c1cc2c(cc1O[C@@H]1O[C@H](CO)[C@@H](O)[C@H](O)[C@H]1O)[C@@]1(C)CCCC(C)(C)[C@@H]1CC2`: the IC50 was 18 µM in the assay on AGS and 19 µM in the assay with MRC5.
Take `CC(C)c1cc2c(cc1[N+](=O)[O-])[C@@]1(C)CCC[C@@](C)(CNC(=O)c3ccccc3)[C@@H]1CC2`: the IC50 turned out to be 11.3 µg/mL (≈ 26 µM) in [2] and 5.7 µg/mL (≈ 13.1 µM) in [5].
For `CCCCCCCC/C=C/CCCCCCCC(=O)Oc1cc2c(cc1C(C)C)CC[C@H]1C(C)(C)CCC[C@]21C`, the inhibition in vivo at 20 mg/kg in the assay with Mus musculus [4] was determined as 50%. Besides, in the assay on MRC5, the IC50 was greater than 1000 µM.
With `COc1ccc(NC(=O)[C@]2(C)CCC[C@]3(C)c4ccc(C(C)C)cc4CC[C@@H]23)c(OC)c1`, the IC50 in the assay on AGS and with MRC5 was greater than 1000 µM each time. Further, in the assay with Mus musculus [1], the inhibition in vivo at 100 mg/kg was 67%.
In the case of `Cc1c(C(=O)Oc2cc3c(cc2C(C)C)CC[C@H]2C(C)(C)CCC[C@]32C)oc2ccccc12`, the inhibition in vivo at 20 mg/kg in the assay on Mus musculus [4] was 50%. This compound gave an IC50 with MRC5 greater than 1000 µM.
As for `CC(C)c1ccc2c(c1)CC[C@H]1[C@](C)(NC(=O)N3CCCCC3)CCC[C@]21C`, the IC50 in the assay with SMMC-7721 was 8.8 µM.
In assay [3], `CCC(C)[C@H](NC(=O)[C@]1(C)CCC[C@]2(C)c3ccc(C(C)C)cc3CC[C@@H]12)C(=O)OC` (stereo partly specified) registered an IC50 of 2.3 µM.
As to `CC(C)c1cc2c(cc1O[C@@H]1O[C@H](CO)[C@H](O)[C@H](O)[C@H]1O)[C@@]1(C)CCCC(C)(C)[C@@H]1CC2`, the IC50 stood at 18 µM in the assay on AGS and 19 µM in the assay with MRC5. Besides, in the assay with Mus musculus [4], the inhibition in vivo at 20 mg/kg stood at 61%.
In turn, `CC(C)c1ccc2c(c1)CC[C@H]1[C@](C)(C/N=C/c3ccc(F)cc3)CCC[C@]21C` returned an IC50 in the assay with SMMC-7721 of 44.5 µM.
